What was measured:
purified 20S proteasome [1] = target: T1, purified 20S proteasome (UniProt G1T4Q9); assay: Inhibition of chymotrypsin-like activity of purified 20S proteasome (source not stated); format: biochemical; details: chymotrypsin-like activity of purified 20S proteasome
T1 construct: IC50; other: chymotrypsin-like activity of purified 20S proteasome
Protocol: (§1) Inhibition of purified 20S proteasome activity by natural or synthetic GTPs. Purified prokaryotic (0.5 μg) or eukaryotic (0.02 μg) 20S proteasome was incubated with 20 μM fluorogenic peptide substrate, Suc-Leu-Leu-Val-Tyr-AMC for 30 min at 37° C. in […] of assay buffer (50 mM Tris-HCl, pH 7.5), with or without a natural or synthetic tea polyphenol. After incubation, production of hydrolyzed 7-amido-4-methyl-coumarin (AMC) groups was measured using a multi-well plate VERSAFLUOR Fluorometer with an excitation filter of 380 nm and an emission filter of 460 nm (BIO-RAD), and a multi-well plate reader Wallac 1420 VICTORTM^2 with an excitation filter of 355 nm and an emission filter of 460 nm (EG&G WALLAC).

LNCaP cells [2] = assay: Western blot of proteasome target proteins in LNCaP cells; format: cell-based, human; details: 50 μM, 3 to 12 hours
Protocol: Cell Culture, Cell Extract Preparation, and Western Blot Assay. Human leukemia Jurkat T and prostate cancer LNCaP cells were cultured in RPMI 1640 medium supplemented with 10% fetal calf serum, 100 units/ml of penicillin, and 100 μg/ml streptomycin. Human immortalized, non-transformed NK cells (YT cell line) (38) were cultured in RPMI 1640 supplemented with 1 mM MEM sodium pyruvate solution, 0.1 mM MEM non-essential amino acids solution, 10% fetal calf serum. 100 units/ml penicillin, and 100 μg/ml streptomycin. Normal (WI-38) and simian virus 40 (SV40)-transformed (VA-13) human fibroblasts were grown in Dulbecco's modified Eagle's medium supplemented with 10% fetal calf serum, 100 units/ml of penicillin and 100 μg/ml of streptomycin. All cells were maintained at 37° C. in a humidified incubator with an atmosphere of 5% CO2. A whole cell extract was prepared in accordance with An et al. (An, B. et al. Cell Death Differ, 1998, 5:1062-75). Briefly, cells were harvested, washed with PBS twice, and homogenized in a lysis buffer [50 mM Tris-HCl (pH 8.0), 5 mM EDTA, 150 mM NaCl, 0.5% NP-40, 0.5 mM phenylmethylsulfonyl fluoride, and 0.5 mM dithiothreitol] for 30 min at 4° C. Afterwards, lysates were centrifuged at 12,000×g for 15 min at 4° C., and the supernatants were collected as whole cell extracts. Equal amounts of protein extract (60 μg) were resolved by SDS-polyacrylamide gel electrophoresis and transferred to a nitrocellulose membrane using a Semi-Dry Transfer system (BIO-RAD, Hercules, Calif.). Jurkat T, LNCaP, or DU-145 cells were treated with various concentrations of synthetic or natural tea polyphenols for indicted hours. The enhanced chemiluminescence (ECL) Western blot analysis was then performed using specific antibodies to the proteins of interest (p^27kip, IκB-α, PARP, Bax or actin). The ratio of p27 or IκB-α to the corresponding actin was determined by scanning intensities of the protein bands.
To investigate whether (−)-EGCG-amide and (+)-EGCG-amide inhibit intact tumor cell proteasome activity, human prostate cancer LNCaP cells were treated with 25 μM of (−)- or (+)-EGCG-amide for up to 9 hours, followed by measurement of p27, IκB-α and Bax, three well-known proteasome target proteins (Pagano, M. et al. Science, 1995, 269:682-685; An, B. et al. Cell Death Differ, 1998, 5:1062-75; Sun, J. et al. Cancer Res, 2001, 61:1280-1284; Palombella, V. J. et al. Cell, 1994, 78:773-785; Thompson, J. E. et al. Cell, 1995, 80:573-582; Perkins, N. D. Trends Biochem Sci, 2000, 25:434-440; Chang, Y. C. et al. Cell Growth Differ, 1998, 9:79-84; Li, B. and Dou, Q. P. Proc Natl Acad Sci USA, 2000, 97:3850-3855; Nam, S. et al. Cancer Epidemiol Biomarkers Prey, 2001, 10:1083-1088). In this experiment (−)-EGCG and (+)-EGCG were used as positive controls.
Having determined that the synthetic GTP-1 to −5 analogs are able to inhibit the proteasomal chymotrypsin-like activity in vitro (FIG. 8), these compounds were investigated for their potency in inhibiting intact tumor cellular proteasome activity. To do so, human prostate cancer LNCaP cells were treated with one of these compounds for the indicated hours, followed by measuring levels of proteasome target proteins, p27, IκB-α, and Bax, and polyubiquitinated proteins.

Jurkat T cells = assay: Flow cytometry cell cycle analysis, Jurkat T cells; format: cell-based, human; details: 24 hours
Protocol: (§2) Flow Cytometry. Cell cycle analysis based on DNA content was performed as in An et al. (An, B. et al. Cell Death Differ, 1998, 5:1062-75). At each time point, cells were harvested, counted, and washed twice with PBS. Cells (5×10^6) were suspended in 0.5 ml PBS, fixed in 5 ml of 70% ethanol overnight at −20° C., centrifuged, resuspended again in 1 ml of propidium iodide staining solution (50 μg propidium iodide, 100 units RNase A and 1 mg glucose per ml PBS), and incubated at room temperature for 30 minutes. The cells were then analyzed with FACScan (Becton Dickinson Immunocytometry, Calif.), ModFit LT and WinMDI V.2.8 cell cycle analysis software (Verity Software; Topsham, Me.). The cell cycle distribution is shown as the percentage of cells containing G1, S, G2, and M phase DNA judged by propidium iodide staining The apoptotic population is determined as the percentage of cells with sub-G1 DNA content (<G1).
Previous studies have shown that overexpression of p27 (Pagano, M. et al. Science, 1995, 269:682-685), IκB-α (Verma, I. M. et al. Genes Dev, 1995, 9:2723-2735), and Bax (Li, B. and Dou, Q. P. Proc Natl Acad Sci USA, 2000, 97:3850-3855) results in G1 arrest or apoptosis. If increased levels of these proteasome target proteins by the synthetic EGCG analogs are functional, growth inhibition of tumor cells would be expected. […] The G1 population was indeed increased by 26% and 9% by treatment with GTP-4 and GTP-5, respectively (FIG. 11).

purified 20S proteasome [3] = assay: Inhibition of chymotrypsin-like activity of purified 20S proteasome (source not stated); format: biochemical
Protocol: as §1

[4] = target: T2, 20S eukaryotic proteasome (Oryctolagus cuniculus, UniProt G1T4Q9); assay: Inhibition of chymotrypsin-like activity of purified eukaryotic 20S proteasome (Suc-Leu-Leu-Val-Tyr-AMC); format: biochemical, rabbit; details: chymotrypsin-like activity, rabbit 20S proteasome
T2 construct: purchased BOSTON BIOCHEM (Cambridge, Mass.)
T2 sequence (G1T4Q9 1-263): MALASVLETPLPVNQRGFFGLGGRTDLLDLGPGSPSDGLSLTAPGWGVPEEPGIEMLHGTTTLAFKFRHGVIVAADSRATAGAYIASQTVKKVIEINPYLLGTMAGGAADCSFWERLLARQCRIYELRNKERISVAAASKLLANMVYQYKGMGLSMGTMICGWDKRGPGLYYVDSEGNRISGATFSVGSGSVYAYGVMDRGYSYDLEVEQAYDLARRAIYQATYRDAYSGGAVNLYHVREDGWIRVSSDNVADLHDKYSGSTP
Protocol: Materials. Highly purified tea polyphenols (−)-EGCG (>95%), (−)-GCG (>98%), (−)-ECG (>98%), (−)-CG (>98%), fetal calf serum, propidium iodide, 3-[4,5-dimethylthiazol-2-yl]-2,5-diphenyltetrazolium bromide (MTT), RNase A, and DMSO were purchased from Sigma (St. Louis, Mo.). (+)-EGCG, benzyl-protected-(+)-EGCG, (+)-GCG, (−)-EGCG-amide, and (+)-EGCG-amide were prepared by enantioselective synthesis (see below). Purified 20S eukaryotic proteasome from rabbit was purchased from BOSTON BIOCHEM (Cambridge, Mass.). Purified 20S prokaryotic proteasome (Methanosarcina thermophile, Recombinant, E. coli) was purchased from CALBIOCHEM (La Jolla, Calif.). Fluorogenic peptide substrates Suc-Leu-Leu-Val-Tyr-AMC (for the proteasomal chymotrypsin-like activity) was obtained from Calbiochem (La Jolla, Calif.). RPMI 1640 medium, Dulbecco's modified Eagle's medium, MEM non-essential amino acids solution, MEM-sodium pyruvate solution, penicillin, and streptomycin were from INVITROGEN (Carlsbad, Calif.). Monoclonal antibody to p27^Kip was purchased from PHARMINGEN (San Diego, Calif.); polyclonal antibodies to IκB-α, Bax and actin, and monoclonal antibody to ubiquitin were from SANTA CRUZ Biotechnology Inc. (Santa Cruz, Calif.).
as §1
Purified prokaryotic (0.5 μg) or eukaryotic (0.02 μg) 20S proteasome was incubated with 20 μM fluorogenic peptide substrate, Suc-Leu-Leu-Val-Tyr-AMC for 30 minutes at 37° C. in 100 μl of assay buffer ([…] Tris-HCl, pH 7.5), with or without a natural or synthetic tea polyphenol. After incubation, production of hydrolyzed AMC groups was measured using a multi-well plate VERSAFLUOR Fluorometer with an excitation filter of 380 nm and an emission filter of 460 nm.
(−)-EGCG at 1 μM was incubated with eukaryotic 20S proteasome (0.02 μg) and suc-LLVY-AMC (20 μM) for the times indicated in FIG. 7. The chymotrypsin activity was measured and graphed in FIG. 7. Values are means from 4 independent experiments, and error bars represent standard deviations.
In the second experiment (−)-EGCG at 1 μM was pre-incubated with (SDS-pre) or without 0.01% SDS (no SDS) for 1 hour, followed by addition of eukaryotic 20S proteasome (0.02 μg) and suc-LLVY-AMC (20 μM). “SDS-post” represents the same treatment as “no SDS” except 0.01% SDS was added 1 hour after addition of the proteasome, (−)-EGCG and the substrate. AMC liberation was measured by fluorescence at each indicated time point and the percentage of chymotrypsin activity was determined. Values are means from 4 independent experiments, and error bars represent standard deviations.

LNCaP cells [5] = assay: Flow cytometry cell cycle analysis, LNCaP cells; format: cell-based, human; details: 10 μM, 24 hours
Protocol: as §2
It has been shown that overexpression of p27 and IκB-α results in G1 arrest. If increased levels of these proteasome target proteins by synthetic GTPs are functional, it would be expected to see growth arrest of tumor cells in G1 phase. To test this hypothesis, asynchronous prostate LNCaP cells were treated with 10 μM of synthetic (+)-EGCG or (+)-GCG, along with each respective natural GTP as control, for 24 hours. Cells were then harvested, and analyzed by cell cycle analysis by flow cytometry. […] Growth arrest was determined by the increase in the percentage of the G1 population.

LNCaP cells [6] = assay: Soft agar colony formation assay; format: cell-based, human; details: 10 μM, 14 day-incubation
Protocol: Soft Agar Assay. The soft agar assay was performed according to Smith et al. (Smith, D. M. et al. Mol Med, 2002, 8:382-392) with a few modifications. In brief, in a six-well plate, a bottom feeder layer (0.6% agar) was prepared with DMEM media containing 10% fetal bovine serum, 100 units/ml penicillin, and 100 μg/ml streptomycin. A top layer (0.3% agar) was prepared with DMEM and the same media as described above but containing 2×10^4 prostate cancer LNCaP cells and indicated analogs or DMSO as a control. Plates were incubated at 37° C. in 5% CO2 in a humidified incubator for two weeks. MTT (1 mg/ml) was added to each well and incubated overnight to allow complete formation of purple formazan crystals. The plates were then scanned and photographed, and the number of colonies was quantified by QUANTITY ONE v.4.0.3 software (Bio-Rad, Hercules, Calif.).
The […] effects of several GTP analogs were investigated with a soft agar assay that measures the transforming activity of human tumor cells. LNCaP cells were plated in soft agar (see Materials and Methods) along with 50 μM of GTP-1, -2, -3, (−)-EGCG (as a positive control; Smith, D. M. et al. Mol Med, 2002, 8:382-392, 2002), or the solvent (as a negative control), followed by a 14 day-incubation to allow for colony formation (FIGS. 12A and 12B).
In a second experiment, LNCaP cells were plated in soft agar along with 10 μM of each indicated GTP or solvent (H2O), followed by a 14 day-incubation to allow for colony formation (FIG. 21A). […] Colonies were quantified with an automated counter and presented as mean values from triplicate independent experiments. Error bars denote standard deviations.

Compound	IC50 (purified 20S proteasome [1]) [µM]	levels of Bax protein (LNCaP cells [2])	levels of proteasome target proteins (p27, IκB-α) (LNCaP cells [2])	increase of G1 population (Jurkat T cells) [%]	increase of sub-G1 DNA cell population (Jurkat T cells) [%]	inhibition of the proteasome (in words) (purified 20S proteasome [3])	further results
O=C(O[C@H]1Cc2ccccc2C[C@H]1OC(=O)c1cc(O)c(O)c(O)c1)c1cc(O)c(O)c(O)c1 [GTP-4]	0.34	increased only at 12 hours	significant increase in levels of p27 and IκB-α	26	~15	–	–
COC(C)=O [methyl acetate, reference compound]	–	–	–	–	–	cannot inhibit the proteasome	–
benzyl hydroxybenzoate [reference compound]	–	–	–	–	–	cannot inhibit the proteasome	–
O=C(OC1Cc2c(O)cc(O)cc2OC1c1cc(O)c(O)c(O)c1)c1cc(O)c(O)c(O)c1 (single isomer, unassigned; (-)) [(−)-GCG, reference compound]	–	–	–	–	–	–	IC50 [4]: 0.61 µM; increase of G1 population (G1 arrest) (LNCaP cells [5]): ~14%; inhibition of colony formation (LNCaP cells [6]): 99%
COC(=O)c1cc(O)c(O)c(O)c1 [methyl gallate, reference compound]	–	–	–	–	–	cannot inhibit the proteasome	–
O=C(O[C@H]1Cc2cc(O)ccc2C[C@H]1OC(=O)c1cc(O)c(O)c(O)c1)c1cc(O)c(O)c(O)c1 [GTP-5]	0.73	increased only at 12 hours	significant increase in levels of p27 and IκB-α	9	~15	–	–

Source: patent US9399631B2, “Polyphenol proteasome inhibitors, synthesis, and methods of use” (UNIVERSITY OF SOUTH FLORIDA, priority 2003, dated 2016)
